Results taken from ChEMBL document CHEMBL1201862, “PubChem BioAssay data set” (2004).
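Tested at 5 concentrations; 48 h exposure; 96-well plates; endpoints linearly interpolated, else capped at highest concentration. GI50: concentration for 50% inhibition of growth.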 Activity calls are given as the source filed them. No stated cut-off is given here; in the data, active = GI50 up to about 1.1 µM and inactive = higher.

Legend:
Assay in all cases: NCI tumour cell line growth inhibition, 48 h
SF-295 = test system: SF-295
MOLT-4 = test system: MOLT-4
MDA-MB-435 = test system: MDA-MB-435
HCC 2998 = test system: HCC 2998
HT-29 = test system: HT-29
RXF 393 = test system: RXF 393
SNB-19 = test system: SNB-19
MDA-N = test system: MDA-N
NCI-H226 = test system: NCI-H226
M14 = test system: M14
786-0 = test system: 786-0
U-251 = test system: U-251
MCF7 = test system: MCF7
EKVX = test system: EKVX
NCI-H522 = test system: NCI-H522
UO-31 = test system: UO-31
OVCAR-4 = test system: OVCAR-4
NCI-H23 = test system: NCI-H23
OVCAR-5 = test system: OVCAR-5
HL-60 = test system: HL-60

SMILES	GI50 (SF-295)	GI50 (MOLT-4)	GI50 (MDA-MB-435)	GI50 (HCC 2998)	GI50 (HT-29)	GI50 (RXF 393)	GI50 (SNB-19)	GI50 (MDA-N)	GI50 (NCI-H226)	GI50 (M14)	GI50 (786-0)	GI50 (U-251)	GI50 (MCF7)	GI50 (EKVX)	GI50 (NCI-H522)	GI50 (UO-31)	GI50 (OVCAR-4)	GI50 (NCI-H23)	GI50 (OVCAR-5)	GI50 (HL-60)
O=c1c(S(=O)(=O)Oc2ccccc2)coc2cc(F)ccc12	30.3 µM (inactive)	> 100 µM (inactive)	> 100 µM (inactive)	> 100 µM (inactive)	> 100 µM (inactive)	36.1 µM (inactive)	> 100 µM (inactive)	> 100 µM (inactive)	17.4 µM (inactive)	> 100 µM (inactive)	> 100 µM (inactive)	> 100 µM (inactive)	74.8 µM (inactive)	> 100 µM (inactive)	> 100 µM (inactive)	46.8 µM (inactive)	> 100 µM (inactive)	82.2 µM (inactive)	> 100 µM (inactive)	
COc1ccc(NC(=O)CC(=O)N2N=C(C)C(/N=N\c3ccc(S(=O)(=O)c4ccc(/N=N/C5C(=O)N(C(=O)CC(=O)Nc6ccc(OC)cc6)N=C5C)cc4)cc3)C2=O)cc1 (stereo unspecified)	> 100 µM (inactive)	> 100 µM (inactive)	> 100 µM (inactive)	> 100 µM (inactive)	> 100 µM (inactive)	31.3 µM (inactive)	> 100 µM (inactive)	> 100 µM (inactive)	> 100 µM (inactive)	> 100 µM (inactive)	> 100 µM (inactive)	> 100 µM (inactive)	> 100 µM (inactive)	> 100 µM (inactive)	> 100 µM (inactive)	> 100 µM (inactive)	> 100 µM (inactive)	> 100 µM (inactive)		> 100 µM (inactive)
Cc1ccc(C(=O)C#Cc2cn(C3CC(O)C(CO)O3)c(=O)[nH]c2=O)cc1 (stereo unspecified)	> 100 µM (inactive)		> 100 µM (inactive)	> 100 µM (inactive)	> 100 µM (inactive)	> 100 µM (inactive)	> 100 µM (inactive)	> 100 µM (inactive)	> 100 µM (inactive)	53.1 µM (inactive)	> 100 µM (inactive)	> 100 µM (inactive)	47.6 µM (inactive)	> 100 µM (inactive)	11.5 µM (inactive)	> 100 µM (inactive)	95.9 µM (inactive)	> 100 µM (inactive)		
Cc1nn(C(=O)c2ccncc2)c2c1C(c1ccccc1)SC(=N)N2 (stereo unspecified)	> 10 µM (inactive)	> 10 µM (inactive)	> 10 µM (inactive)	> 10 µM (inactive)	> 10 µM (inactive)	> 10 µM (inactive)	> 10 µM (inactive)	> 10 µM (inactive)	> 10 µM (inactive)	> 10 µM (inactive)	> 10 µM (inactive)	> 10 µM (inactive)	> 10 µM (inactive)	> 10 µM (inactive)	> 10 µM (inactive)		> 10 µM (inactive)	> 10 µM (inactive)	> 10 µM (inactive)	> 10 µM (inactive)
CNN1C(=O)c2c(C)c(C)c(C#N)c(N)c2C1=O	> 100 µM (inactive)	> 100 µM (inactive)	> 100 µM (inactive)	> 100 µM (inactive)		40.8 µM (inactive)	> 100 µM (inactive)	> 100 µM (inactive)	> 100 µM (inactive)	> 100 µM (inactive)	> 100 µM (inactive)	> 100 µM (inactive)	> 100 µM (inactive)	> 100 µM (inactive)	> 100 µM (inactive)	> 100 µM (inactive)	> 100 µM (inactive)		> 100 µM (inactive)	> 100 µM (inactive)
COc1ccc2c(C)cc(N/N=C(\C)C=O)nc2c1	10 µM (inactive)	4.51 µM (inactive)	10.8 µM (inactive)	11.9 µM (inactive)	12.2 µM (inactive)	10.6 µM (inactive)	13 µM (inactive)	10.8 µM (inactive)	10.5 µM (inactive)	13.6 µM (inactive)	11.6 µM (inactive)	11.4 µM (inactive)	8.79 µM (inactive)	16.6 µM (inactive)	12.6 µM (inactive)	13.2 µM (inactive)	11.2 µM (inactive)	11.8 µM (inactive)	13 µM (inactive)	
c1ccc2c(c1)Nc1cccc3c1c-2nc1cc2ccccc2cc13	1.6 µM (inactive)		2 µM (inactive)	1.72 µM (inactive)	1.72 µM (inactive)	1.57 µM (inactive)	1.75 µM (inactive)	1.45 µM (inactive)	1.85 µM (inactive)	2.12 µM (inactive)	1.72 µM (inactive)	2.03 µM (inactive)	1.56 µM (inactive)	1.55 µM (inactive)	1.98 µM (inactive)	1.63 µM (inactive)	1.87 µM (inactive)	1.32 µM (inactive)	1.82 µM (inactive)	
COc1ccc(-c2cc(C3CC3)nc(SCC(=O)O)c2C#N)cc1	60.3 µM (inactive)	60.3 µM (inactive)	> 100 µM (inactive)	> 100 µM (inactive)	> 100 µM (inactive)	62.8 µM (inactive)	> 100 µM (inactive)	> 100 µM (inactive)	82.6 µM (inactive)	> 100 µM (inactive)	> 100 µM (inactive)	58.9 µM (inactive)	94.4 µM (inactive)	> 100 µM (inactive)	25.1 µM (inactive)	1.85 µM (inactive)	79.8 µM (inactive)	> 100 µM (inactive)	> 100 µM (inactive)	54.5 µM (inactive)
Cc1c2c(Cl)c3c(c(Cl)c2c(C)c2c(Cl)c4c(c(Cl)c12)C(c1ccccc1)(c1ccccc1)C4(c1ccccc1)c1ccccc1)C(c1ccccc1)(c1ccccc1)C3(c1ccccc1)c1ccccc1	> 100 µM (inactive)	> 100 µM (inactive)	> 100 µM (inactive)	> 100 µM (inactive)	> 100 µM (inactive)	> 100 µM (inactive)	> 100 µM (inactive)	> 100 µM (inactive)	> 100 µM (inactive)	> 100 µM (inactive)	> 100 µM (inactive)	> 100 µM (inactive)	> 100 µM (inactive)	> 100 µM (inactive)	> 100 µM (inactive)	> 100 µM (inactive)	> 100 µM (inactive)	> 100 µM (inactive)	> 100 µM (inactive)	
CN1CCN(C(=S)N(C)C(=O)c2ccco2)CC1	> 100 µM (inactive)	> 100 µM (inactive)	> 100 µM (inactive)	> 100 µM (inactive)	> 100 µM (inactive)	> 100 µM (inactive)	> 100 µM (inactive)	> 100 µM (inactive)	> 100 µM (inactive)	> 100 µM (inactive)	> 100 µM (inactive)	> 100 µM (inactive)	> 100 µM (inactive)		> 100 µM (inactive)	> 100 µM (inactive)	> 100 µM (inactive)	> 100 µM (inactive)	> 100 µM (inactive)	> 10 µM (inactive)
CCOC(=O)c1nc2cc(C(F)(F)F)ccc2nc1Nc1ccc(C(=O)NC(C(=O)OCC)C(=O)OCC)cc1	15.5 µM (inactive)	> 100 µM (inactive)	33.6 µM (inactive)	49.4 µM (inactive)	25.1 µM (inactive)	13.6 µM (inactive)	18.2 µM (inactive)	> 10 µM (inactive)	13.7 µM (inactive)		14.3 µM (inactive)	14 µM (inactive)	19.5 µM (inactive)	26.2 µM (inactive)	18.7 µM (inactive)	30.6 µM (inactive)	10.6 µM (inactive)	35.5 µM (inactive)	45.1 µM (inactive)	73.6 µM (inactive)
CCNCCNc1c2ccccc2nc2ccccc12	1.21 µM (inactive)	0.54 µM (active)	1.21 µM (inactive)	0.127 µM (active)	0.427 µM (active)	1.23 µM (inactive)	1.01 µM (active)	1.28 µM (inactive)		1.39 µM (inactive)	0.791 µM (active)		0.565 µM (active)	2.44 µM (inactive)	1.04 µM (active)	1.49 µM (inactive)	1.14 µM (inactive)	1.26 µM (inactive)	1.13 µM (inactive)	2.24 µM (inactive)
S=C(S)N1CCN(c2cccc(Cl)c2)CC1	> 100 µM (inactive)	78.3 µM (inactive)	> 100 µM (inactive)	52.6 µM (inactive)	> 100 µM (inactive)	> 100 µM (inactive)	> 100 µM (inactive)	> 100 µM (inactive)		> 100 µM (inactive)	73.1 µM (inactive)	44.3 µM (inactive)	> 100 µM (inactive)	> 100 µM (inactive)	> 100 µM (inactive)	30.8 µM (inactive)		> 100 µM (inactive)	> 100 µM (inactive)	34.9 µM (inactive)
CCCCOc1ccc(S(=O)(=O)N/C(=N\O)Nc2ccc(Cl)cc2)cc1	16.9 µM (inactive)	10.8 µM (inactive)	15.9 µM (inactive)	14.3 µM (inactive)	17.2 µM (inactive)	15.2 µM (inactive)	15.2 µM (inactive)	17.7 µM (inactive)	24 µM (inactive)	15.2 µM (inactive)	15.8 µM (inactive)	15.5 µM (inactive)	13.3 µM (inactive)	15.8 µM (inactive)	14.7 µM (inactive)	12.2 µM (inactive)	10.8 µM (inactive)	14.7 µM (inactive)	18.6 µM (inactive)	
